In US10160762B2, “6-alkyl dihydropyrazolopyrimidinone compounds as PDE2 inhibitors” (Merck Sharp & Dohme Corp., priority 2015, dated 2018) one finds Ki data, which are given here for 26 compounds.

This assay deals with T1, Rhesus PDE2A3 (Macaca mulatta, UniProt B3VTJ2).
T1 construct: made in house; host or cells: AD293 cells, transient transfection; supernatant of sonicated lysate
T1 sequence (B3VTJ2 1-941): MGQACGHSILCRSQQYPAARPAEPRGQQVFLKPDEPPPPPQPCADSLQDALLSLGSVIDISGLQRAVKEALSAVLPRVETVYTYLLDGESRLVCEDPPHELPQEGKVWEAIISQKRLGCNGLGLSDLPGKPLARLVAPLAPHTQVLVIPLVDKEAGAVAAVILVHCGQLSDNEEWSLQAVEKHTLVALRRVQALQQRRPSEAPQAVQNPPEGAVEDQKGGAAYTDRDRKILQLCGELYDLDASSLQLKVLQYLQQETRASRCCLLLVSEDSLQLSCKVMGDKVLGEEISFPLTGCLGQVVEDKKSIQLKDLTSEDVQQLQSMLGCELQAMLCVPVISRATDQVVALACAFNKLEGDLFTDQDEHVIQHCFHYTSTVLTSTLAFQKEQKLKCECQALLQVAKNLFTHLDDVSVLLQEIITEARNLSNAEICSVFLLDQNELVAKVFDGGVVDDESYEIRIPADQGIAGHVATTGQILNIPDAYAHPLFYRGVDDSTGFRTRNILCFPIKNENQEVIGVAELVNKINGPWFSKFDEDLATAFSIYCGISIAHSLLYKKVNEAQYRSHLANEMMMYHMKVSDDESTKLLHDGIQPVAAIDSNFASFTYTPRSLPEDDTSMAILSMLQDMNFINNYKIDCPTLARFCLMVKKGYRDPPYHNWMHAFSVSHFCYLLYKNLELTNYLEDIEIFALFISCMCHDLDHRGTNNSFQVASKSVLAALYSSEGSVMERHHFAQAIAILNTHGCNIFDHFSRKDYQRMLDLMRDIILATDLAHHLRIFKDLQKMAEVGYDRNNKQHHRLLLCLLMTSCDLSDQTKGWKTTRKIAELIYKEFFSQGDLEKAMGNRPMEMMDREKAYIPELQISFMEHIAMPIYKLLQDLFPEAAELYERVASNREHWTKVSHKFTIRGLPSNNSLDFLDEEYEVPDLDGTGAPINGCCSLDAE
The assay can be described thus: PDE2 fluorescence polarization (IMAP FP) inhibition assay, rhesus PDE2A3. It counts as biochemical, rhesus macaque. The following applies: Lab B; read-out: Rhesus PDE2 Ki (nM) Lab B. A digest of the protocol: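 Enzyme source was the lysate supernatant of AD293 cells transiently expressing rhesus PDE2A3, diluted to give 20% conversion of 50 nM FAM-cAMP, with 1 µM cGMP as activator. Buffer was 10 mM Tris pH 7.2, 10 mM MgCl2, 1 mM DTT.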
Background: Polarisation of emitted light reports the rotation of a fluorescent probe.

In general, Ki refers to the equilibrium dissociation constant of an inhibitor or competing ligand from its target. With `Cc1nc2c(c(CO)nn2C(c2ccc(C(F)(F)F)cc2)C2(C)CC2)c(=O)[nH]1` (single isomer, unassigned) [Example 24, (R)- or (S)-3-(Hydroxymethyl)-6-methyl-1-((1-methylcyclopropyl)(4-(trifluoromethyl)phenyl)methyl)-1H-pyrazolo[3,4-d]pyrimidin-4(5H)-one], the Ki was 1.9 nM.

Turning to `Cc1nc2c(c(CO)nn2C(c2ccc(OC(F)(F)F)c(F)c2)C2CC2)c(=O)[nH]1` (single isomer, unassigned) [Example 92, (R)- or (S)-1-(Cyclopropyl(3-fluoro-4-(trifluoromethoxy)phenyl)methyl)-3-(hydroxymethyl)-6-methyl-1H-pyrazolo[3,4-d]pyrimidin-4(5H)-one], the inhibition constant Ki turned out to be 10 nM.

Consider `Cc1nc2c(c(CC(F)(F)F)nn2C(c2ccc(C(F)(F)F)cc2)C(C)(C)C)c(=O)[nH]1` (single isomer, unassigned) [Example 57, (S)- or (R)-1-(2,2-Dimethyl-1-(4-(trifluoromethyl)phenyl)propyl)-6-methyl-3-(2,2,2-trifluoroethyl)-1H-pyrazolo[3,4-d]pyrimidin-4(5H)-one], for which the Ki was found to be 69 nM.

As to `Cc1nc2c(c(CO)nn2C(C)c2ccc(S(F)(F)(F)(F)F)cc2)c(=O)[nH]1` (single isomer, unassigned) [Example 77], the inhibition constant Ki was determined as 4.2 nM.

With `Cc1nc2c(c(CF)nn2C(c2ccc(OC(F)(F)F)c(F)c2)C2CC2)c(=O)[nH]1` (single isomer, unassigned) [Example 228, (R)- or (S)-1-(Cyclopropyl(3-fluoro-4-(trifluoromethoxy)phenyl)methyl)-3-(fluoromethyl)-6-methyl-1,5-dihydro-4H-pyrazolo[3,4-d]pyrimidin-4-one], the Ki came to 0.5 nM.

Consider `CC(C)c1nc2c(c(CO)nn2C(C)c2ccc(C(F)(F)F)cc2)c(=O)[nH]1` (racemic) [Example 296, 3-(Hydroxymethyl)-6-(1-methylethyl)-1-{1-[4-(trifluoromethyl)phenyl]ethyl}-1,5-dihydro-4H-pyrazolo[3,4-d]pyrimidin-4-one], for which the inhibition constant (Ki) was determined as 36 nM.

For `COc1cccc(Cc2nc3c(c(CF)nn3C(C)c3ccc(C(F)(F)F)cc3)c(=O)[nH]2)c1` (single isomer, unassigned) [Example 221, (S)- or (R)-3-(Fluoromethyl)-6-(3-methoxybenzyl)-1-(1-(4-(trifluoromethyl)phenyl)ethyl)-1H-pyrazolo[3,4-d]pyrimidin-4(5H)-one], the Ki amounted to 1.9 nM.

Take `Cc1nc2c(c(C(F)(F)CO)nn2C(C)c2ccc(C(F)(F)F)cc2)c(=O)[nH]1` (single isomer, unassigned) [Example 255]: the inhibitory constant (Ki) is 1.5 nM.

For the compound `Cc1nc2c(c(CO)nn2C(C)c2ccc(OC(F)F)cc2)c(=O)[nH]1` (single isomer, unassigned) [Example 21, (S)- or (R)-1-(1-(4-(Difluoromethoxy)phenyl)ethyl)-3-(hydroxymethyl)-6-methyl-1H-pyrazolo[3,4-d]pyrimidin-4(5H)-one], the Ki was 2.9 nM.

As for `Cc1nc2c(c(/C=N\O)nn2C(C)c2ccc(C(F)(F)F)cc2)c(=O)[nH]1` (centres unmarked) [Example 251, (Z)-6-Methyl-4-oxo-1-(1-(4-(trifluoromethyl)phenyl)ethyl)-4,5-dihydro-1H-pyrazolo[3,4-d]pyrimidine-3-carbaldehyde oxime], the inhibition constant Ki was 8.9 nM.

Turning to `Cc1nc2c(c(CF)nn2C(c2ccc(C(F)(F)F)cc2)C(C)(C)C)c(=O)[nH]1` (single isomer, unassigned) [Example 234, (S)- or (R)-1-(2,2-Dimethyl-1-(4-(trifluoromethyl)phenyl)propyl)-3-(fluoromethyl)-6-methyl-1H-pyrazolo[3,4-d]pyrimidin-4(5H)-one], the inhibitory constant (Ki) amounted to 15 nM.

As to `Cc1nc2c(c(C#N)nn2C(C)c2ccc(C(F)(F)F)cc2)c(=O)[nH]1` (single isomer, unassigned) [Example 252], the Ki worked out at 20 nM.

Regarding `Cc1nc2c(c(C=O)nn2C(C)c2ccc(C(F)(F)F)cc2)c(=O)[nH]1` (centres unmarked) [Example 248, 6-Methyl-4-oxo-1-(1-(4-(trifluoromethyl)phenyl)ethyl)-4,5-dihydro-1H-pyrazolo[3,4-d]pyrimidine-3-carbaldehyde], the Ki worked out at 53 nM.

On to `Cc1nc2c(c(CC#N)nn2C(C)c2ccc(C(F)(F)F)cc2)c(=O)[nH]1` (single isomer, unassigned) [Example 281], for which the Ki came out at 1.9 nM.

As for `Cc1nc2c(c(CO)nn2C(c2ccc(OC(F)(F)F)cc2)C(C)C)c(=O)[nH]1` (single isomer, unassigned) [Example 84, (R)- or (S)-3-(Hydroxymethyl)-6-methyl-1-(2-methyl-1-(4-(trifluoromethoxy)phenyl)propyl)-1H-pyrazolo[3,4-d]pyrimidin-4(5H)-one], the inhibition constant Ki was 16 nM.

With `Cc1nc2c(c(CO)nn2C(C)c2ccc(C(F)(F)F)cc2F)c(=O)[nH]1` (single isomer, unassigned) [Example 17, (S)- or (R)-1-(1-(2-Fluoro-4-(trifluoromethyl)phenyl)ethyl)-3-(hydroxymethyl)-6-methyl-1H-pyrazolo[3,4-d]pyrimidin-4(5H)-one], the Ki turned out to be 1.7 nM.

Turning to `Cc1nc2c(c(CO)nn2C(c2ccc(C(C)(C)C)cc2)C2CC2)c(=O)[nH]1` (single isomer, unassigned) [Example 88, (R)- or (S)-1-((4-tert-Butylphenyl)(cyclopropyl)methyl)-3-(hydroxymethyl)-6-methyl-1H-pyrazolo[3,4-d]pyrimidin-4(5H)-one], the Ki is 51 nM.

Take `Cc1nc2c(c(CO)nn2C(C)c2ccc(SC(F)(F)F)cc2)c(=O)[nH]1` (single isomer, unassigned) [Example 23, (S)- or (R)-3-(Hydroxymethyl)-6-methyl-1-(1-(4-(trifluoromethylthio)phenyl)ethyl)-1H-pyrazolo[3,4-d]pyrimidin-4(5H)-one]: the inhibition constant Ki was found to be 1.7 nM.

In the case of `Cc1nc2c(c(CC(F)F)nn2C(C)c2ccc(C(F)(F)F)cc2)c(=O)[nH]1` (single isomer, unassigned) [Example 285], the inhibitory constant (Ki) turned out to be 179 nM.

Take `Cc1nc2c(c(CO)nn2C2(c3ccc(C(F)(F)F)cc3)CCC2)c(=O)[nH]1` [Example 78, 3-(Hydroxymethyl)-6-methyl-1-(1-(4-(trifluoromethyl)phenyl)cyclobutyl)-1H-pyrazolo[3,4-d]pyrimidin-4(5H)-one]: the Ki amounted to 6.7 nM.

Regarding `COCc1nc2c(c(CO)nn2C(C)c2ccc(C(F)(F)F)cc2)c(=O)[nH]1` (single isomer, unassigned) [Example 293], the inhibition constant Ki came to 3.6 nM.

Consider `Cc1nc2c(c(CO)nn2C(c2ccc(C(F)(F)F)c(F)c2)C(C)C)c(=O)[nH]1` (single isomer, unassigned) [Example 87, (S)- or (R)-1-(1-(3-Fluoro-4-(trifluoromethyl)phenyl)-2-methylpropyl)-3-(hydroxymethyl)-6-methyl-1H-pyrazolo[3,4-d]pyrimidin-4(5H)-one], for which the Ki is 3.2 nM.

Turning to `Cc1nc2c(c(CO)nn2C(c2ccc(OC(F)(F)F)c(F)c2)C2CC2)c(=O)[nH]1` (single isomer, unassigned) [Example 93, (S)- or (R)-1-(Cyclopropyl(3-fluoro-4-(trifluoromethoxy)phenyl)methyl)-3-(hydroxymethyl)-6-methyl-1H-pyrazolo[3,4-d]pyrimidin-4(5H)-one], the Ki is 1.9 nM.

For the compound `Cc1nc2c(c(CF)nn2C(c2ccc(C(F)(F)F)c(F)c2)C2CC2)c(=O)[nH]1` (single isomer, unassigned) [Example 226, (R)- or (S)-1-(Cyclopropyl(3-fluoro-4-(trifluoromethyl)phenyl)methyl)-3-(fluoromethyl)-6-methyl-1,5-dihydro-4H-pyrazolo[3,4-d]pyrimidin-4-one], the inhibition constant (Ki) worked out at 0.33 nM.

`Cc1nc2c(c(CF)nn2C(c2ccc(OC(F)(F)F)cc2)C2CC2)c(=O)[nH]1` (single isomer, unassigned) [Example 224, (R)- or (S)-1-(Cyclopropyl(4-(trifluoromethoxy)phenyl)methyl)-3-(fluoromethyl)-6-methyl-1,5-dihydro-4H-pyrazolo[3,4-d]pyrimidin-4-one]: the inhibition constant (Ki) amounted to 0.94 nM.

For the compound `Cc1nc2c(c(CO)nn2C(c2ccc(C(F)(F)F)c(F)c2)C2CC2)c(=O)[nH]1` (single isomer, unassigned) [Example 90, (R)- or (S)-1-(Cyclopropyl(3-fluoro-4-(trifluoromethyl)phenyl)methyl)-3-(hydroxymethyl)-6-methyl-1H-pyrazolo[3,4-d]pyrimidin-4(5H)-one], the Ki was determined as 90 nM.
